# Legend:
# Type in all cases: cell-based
# [1] = test system: model microbiome simulating human oral microbiome; test: Bacterial killing effects on model microbiome (optical density at 600 nm)
# Procedure: (§1) Saliva samples were collected and pooled from 5 healthy volunteers as a model microbiome simulating human oral microbiome, and used to inoculate SHI medium containing different test compositions and controls.
# (§2) 1 mL pooled saliva sample was added to each well of a 24-well plate that had been pre-coated with sterilized, cell-free saliva. The plate was incubated at 37° C. for 16 h in microaerobic conditions (2% O2, 5% CO2, balanced with nitrogen) to allow biofilm formation. After incubation, planktonic portion was collected, optical density was measured at 600 nm and cells were pelleted for DNA isolation. Meanwhile, 1 mL of SHI medium was added to the biofilm portion of each well, biofilm cells were dispersed by scraping and vortex to break the cell aggregates. Optical density was measured at 600 nm and cells were collected for DNA isolation.
# However, the pH of the treated biofilm appeared to depend on the CHX base concentration administered. The pH of the biofilm treated with CHX base solutions and CHX base loaded MSN remained under 5.5 when the CHX base concentration was 75 μg/mL or lower. […]
# [2] = test system: model microbiome simulating human oral microbiome; test: pH of model microbiome (supernatant and saliva-derived biofilm) after treatment in the presence of 2% sucrose
# Procedure: as §1, §2
# Supernatant and biofilms prepared with the model microbiome simulating human oral microbiome according to Example III were treated with embodiments of the CHX base composition (e.g., solution embodiments of the CHX base composition prepared according to Example I (the CHX base solutions); and MSN3 prepared according to Example II(B)(ii)).
# Supernatant and biofilms prepared with the model microbiome simulating human oral microbiome according to Example III were treated with CHX base solution (100 μg/mL, prepared according to Example I(A)); MSN3 (100 μg/mL and 125 μg/mL of CHX base, prepared according to Example I(B)); or nothing (control).
# [3] = test system: model microbiome simulating human oral microbiome; test: Total colony forming units in supernatant and biofilm after treatment; conditions: supernatant and biofilms
# Procedure: as §1, §2
# CHX-G and CPC were also evaluated in the same model microbiome prepared in supernatant and biofilms according to Example III.
Structure (SMILES),"cells present after treatment ([1]; Example IV(B): CHX base solution 100 μg/mL, MSN3 100 and 125 μg/mL of CHX base)","survival/elimination of bacteria after treatment ([1]; Example IV, supernatant and biofilms)","pH of treated microbiome/biofilm compared with control ([2]; Example IV, 16 hr, 2% sucrose)","pH of the treated microbiome ([2]; supernatant and biofilms, various concentrations)",pH of treated biofilms compared with untreated biofilms ([2]; Example V),bacterial killing compared with MSN3 (200 μg/mL of CHX base) ([3]; 200 μg/mL),bacteria remaining after treatment ([3]; Example V)
"[H]/N=C(\N/C(=N/[H])NCCCCCCNC(=N)NC(=N)Nc1ccc(Cl)cc1)Nc1ccc(Cl)cc1 [CHX base, Chlorhexidine]",abundant of cells,without complete elimination of bacteria,higher pH,≤ 6.9,–,–,–
"N=C(NCCCCCCNC(=N)NC(=N)Nc1ccc(Cl)cc1)NC(=N)Nc1ccc(Cl)cc1.O=C(O)[C@H](O)[C@@H](O)[C@H](O)[C@H](O)CO.O=C(O)[C@H](O)[C@@H](O)[C@H](O)[C@H](O)CO [CHX-G, chlorhexidine digluconate]",–,–,–,–,higher pH,killed more bacteria,no trace of bacteria
